From PubChem BioAssay AID1963868 (Molecular Pharmacology Branch, DTP, NCI, 2024)

System: KRAS PDC tumor spheroids (HUVEC+MSC), viability
Assay: Anticancer human tumor 254851-301-R-J1-PDC patient-derived colon carcinoma cell line growth inhibition [KRAS2]
Conditions: for viability, T/C: stronger effect = lower value
Summary of the method: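 KRAS-mutant tumor cells were grown as spheroids with HUVEC endothelial cells and human MSCs as stroma. Targeted agents were tested alone and with KRAS pathway inhibitors. Doses started at or near clinical Cmax, or 10 microM, descending half-log.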

[1] = curve of first compound, second compound 0.1 µM
[2] = curve of first compound, second compound 0.316 µM
[3] = curve of first compound, second compound 1 µM
[4] = curve of first compound, second compound 3.16 µM
[5] = curve of first compound, second compound 10 µM
[6] = second compound 0.1 µM, first compound 0.0316 µM
[7] = second compound 0.1 µM, first compound 0.1 µM
[8] = second compound 0.316 µM, first compound 0.0316 µM
[9] = second compound 0.316 µM, first compound 0.1 µM
[10] = second compound 1 µM, first compound 0.0316 µM
[11] = second compound 1 µM, first compound 0.1 µM
[12] = second compound 3.16 µM, first compound 0.0316 µM
[13] = second compound 3.16 µM, first compound 0.1 µM
[14] = second compound 10 µM, first compound 0.0316 µM
[15] = second compound 10 µM, first compound 0.1 µM
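Note: spheroids exposed to compounds for seven days before readout.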
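Throughout, for viability, T/C: 100% = DMSO vehicle control luminescence of the spheroids.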

## Cn1ncnc1[C@H]1c2n[nH]c(=O)c3cc(F)cc(c23)N[C@@H]1c1ccc(F)cc1 + CC1OCC2(CCN(c3cnc(Sc4ccnc(N)c4Cl)c(N)n3)CC2)C1N
[1]
  IC50: > 100 nM
[2]
  IC50: > 100 nM
[3]
  IC50: > 100 nM
[4]
  IC50: > 100 nM
[5]
  IC50: > 100 nM
Second compound 0.1 µM, first compound 0.000316 µM
  viability, T/C: 98%
Second compound 0.1 µM, first compound 0.001 µM
  viability, T/C: 102%
Second compound 0.1 µM, first compound 0.00316 µM
  viability, T/C: 100%
Second compound 0.1 µM, first compound 0.01 µM
  viability, T/C: 98%
[6]
  viability, T/C: 101%
[7]
  viability, T/C: 98.9%
Second compound 0.316 µM, first compound 0.000316 µM
  viability, T/C: 89.5%
Second compound 0.316 µM, first compound 0.001 µM
  viability, T/C: 93.8%
Second compound 0.316 µM, first compound 0.00316 µM
  viability, T/C: 79%
Second compound 0.316 µM, first compound 0.01 µM
  viability, T/C: 78.8%
[8]
  viability, T/C: 78.3%
[9]
  viability, T/C: 90.6%
Second compound 1 µM, first compound 0.000316 µM
  viability, T/C: 82.4%
Second compound 1 µM, first compound 0.001 µM
  viability, T/C: 85.2%
Second compound 1 µM, first compound 0.00316 µM
  viability, T/C: 75.1%
Second compound 1 µM, first compound 0.01 µM
  viability, T/C: 83.6%
[10]
  viability, T/C: 83.9%
[11]
  viability, T/C: 80.9%
Second compound 3.16 µM, first compound 0.000316 µM
  viability, T/C: 75.1%
Second compound 3.16 µM, first compound 0.001 µM
  viability, T/C: 77.4%
Second compound 3.16 µM, first compound 0.00316 µM
  viability, T/C: 70.5%
Second compound 3.16 µM, first compound 0.01 µM
  viability, T/C: 74.5%
[12]
  viability, T/C: 76.9%
[13]
  viability, T/C: 74.1%
Second compound 10 µM, first compound 0.000316 µM
  viability, T/C: 68.5%
Second compound 10 µM, first compound 0.001 µM
  viability, T/C: 67.7%
Second compound 10 µM, first compound 0.00316 µM
  viability, T/C: 63.7%
Second compound 10 µM, first compound 0.01 µM
  viability, T/C: 57.1%
[14]
  viability, T/C: 67.1%
[15]
  viability, T/C: 57.2%

## COc1cc(Nc2ncc3c(n2)-c2ccc(Cl)cc2C(c2c(F)cccc2OC)=NC3)ccc1C(=O)O
Compound 0.0316 µM
  viability, T/C: 80.7% [middle of 5 runs]
Compound 0.1 µM
  viability, T/C: 41.5% [middle of 5 runs]
Compound 0.316 µM
  viability, T/C: 32.4% [middle of 5 runs]
Compound 1 µM
  viability, T/C: 28.5% [middle of 5 runs]
Compound 3.16 µM
  viability, T/C: 18.7% [middle of 5 runs]
Compound 10 µM
  viability, T/C: 10.7% [middle of 5 runs]
Curve of compound
  IC50: 89.4 nM [middle of 5 runs]

## Cn1ncnc1[C@H]1c2n[nH]c(=O)c3cc(F)cc(c23)N[C@@H]1c1ccc(F)cc1
Compound 0.000316 µM
  viability, T/C: 102% [middle of 5 runs]
Compound 0.001 µM
  viability, T/C: 101% [middle of 5 runs]
Compound 0.00316 µM
  viability, T/C: 99.2% [middle of 5 runs]
Compound 0.01 µM
  viability, T/C: 98.7% [middle of 5 runs]
Compound 0.0316 µM
  viability, T/C: 101% [middle of 5 runs]
Compound 0.1 µM
  viability, T/C: 97.6% [middle of 5 runs]
Curve of compound
  IC50: > 100 nM

## CCNC(=O)CC1N=C(c2ccc(Cl)cc2)c2cc(OC)ccc2-n2c(C)nnc21 (centres undefined) + CNCc1ccccc1-c1csc(C(C)Nc2nc(C)nc3cc(OC)c(OC)cc23)c1
[1]
  IC50: > 10000 nM
[2]
  IC50: > 10000 nM
[3]
  IC50: > 10000 nM
[4]
  IC50: < 31.6 nM
[5]
  IC50: < 31.6 nM
[6]
  viability, T/C: 106%
[7]
  viability, T/C: 91.1%
Second compound 0.1 µM, first compound 0.316 µM
  viability, T/C: 90.4%
Second compound 0.1 µM, first compound 1 µM
  viability, T/C: 99.1%
Second compound 0.1 µM, first compound 3.16 µM
  viability, T/C: 96%
Second compound 0.1 µM, first compound 10 µM
  viability, T/C: 78.6%
[8]
  viability, T/C: 103%
[9]
  viability, T/C: 111%
Second compound 0.316 µM, first compound 0.316 µM
  viability, T/C: 98.3%
Second compound 0.316 µM, first compound 1 µM
  viability, T/C: 92.9%
Second compound 0.316 µM, first compound 3.16 µM
  viability, T/C: 92.4%
Second compound 0.316 µM, first compound 10 µM
  viability, T/C: 81.9%
[10]
  viability, T/C: 90.4%
[11]
  viability, T/C: 101%
Second compound 1 µM, first compound 0.316 µM
  viability, T/C: 92.2%
Second compound 1 µM, first compound 1 µM
  viability, T/C: 100%
Second compound 1 µM, first compound 3.16 µM
  viability, T/C: 92.1%
Second compound 1 µM, first compound 10 µM
  viability, T/C: 73.8%
[12]
  viability, T/C: 44.8%
[13]
  viability, T/C: 43.3%
Second compound 3.16 µM, first compound 0.316 µM
  viability, T/C: 38%
Second compound 3.16 µM, first compound 1 µM
  viability, T/C: 31.3%
Second compound 3.16 µM, first compound 3.16 µM
  viability, T/C: 34.4%
Second compound 3.16 µM, first compound 10 µM
  viability, T/C: 31%
[14]
  viability, T/C: 0.08%
[15]
  viability, T/C: 0.08%
Second compound 10 µM, first compound 0.316 µM
  viability, T/C: 0.08%
Second compound 10 µM, first compound 1 µM
  viability, T/C: 0.08%
Second compound 10 µM, first compound 3.16 µM
  viability, T/C: 0.07%
Second compound 10 µM, first compound 10 µM
  viability, T/C: 0.45%
